Each block holds one molecule with its values, some of them ahead of it.
Legend:
MCF12A = assay: Viability assay in normal cells; type: cell-based, human; settings: normal breast cell line
From the text: (§1) FIG. 32. 6232 derivatives, 6403 and 6415, show no cytotoxicity in normal cells. Viability assay in normal breast cell line, MCF12A, human foreskin fibroblast cell line, HFF and human endothelial cell line, HUVEC treated with 6403 or 6415.

HUVEC = assay: Viability assay in normal cells; type: cell-based; settings: human endothelial cell line
From the text: as §1

HFF = assay: Viability assay in normal cells; type: cell-based; settings: human foreskin fibroblast cell line
From the text: as §1

[1] = test system: MDA-MB-231 cells embedded in collagen I; assay: ECM crosslinking by collagen and fibronectin immunofluorescence staining; type: cell-based, human
Description: FIG. 31. […] A. Inhibition of LOX activity in MDA-MB-231 cells treated with 5 μM of the LOX inhibitors. B. Doxorubicin sensitization with 6232 and its analogs, 6403 and 6415, in 3D collagen-I culture. C. Collagen and fibronectin staining of vehicle or 6232 or 6403 or 6415-treated MDA-MB-231 cells embedded in collagen I. BAPN is used as a positive control.
Immunofluorescence staining of cells was done in μ-Slide 8-well glass bottom chambers (Ibidi, Germany). Cells were fixed with 4% paraformaldehyde for 20 min, permeabilized with 0.5% Triton X-100 for 10 min and blocked in 5% BSA-PBS. Samples were incubated with primary (Collagen I, Fibronectin, F-actin, a-SMA) and secondary Alexa Fluor 647 or 488-labeled antibodies for 1.5 hours at room temperature. Cells were also counterstained with DAPI for 5 min. Images were acquired using ZEN 2012 SP5 (Black) LSM 700 (Carl Zeiss, DE).

[2] = test system: LOXL2-mediated collagen oxidation and cross-linking; settings: in vitro; cited from earlier work
LOXL3 = LOXL3 (Homo sapiens, UniProt P58215); settings: cited from earlier work
LOXL2 [3] = molecular target: T1, LOXL2 (Homo sapiens, UniProt Q9Y4K0); settings: cited from earlier work
T1 sequence (Q9Y4K0 26-774): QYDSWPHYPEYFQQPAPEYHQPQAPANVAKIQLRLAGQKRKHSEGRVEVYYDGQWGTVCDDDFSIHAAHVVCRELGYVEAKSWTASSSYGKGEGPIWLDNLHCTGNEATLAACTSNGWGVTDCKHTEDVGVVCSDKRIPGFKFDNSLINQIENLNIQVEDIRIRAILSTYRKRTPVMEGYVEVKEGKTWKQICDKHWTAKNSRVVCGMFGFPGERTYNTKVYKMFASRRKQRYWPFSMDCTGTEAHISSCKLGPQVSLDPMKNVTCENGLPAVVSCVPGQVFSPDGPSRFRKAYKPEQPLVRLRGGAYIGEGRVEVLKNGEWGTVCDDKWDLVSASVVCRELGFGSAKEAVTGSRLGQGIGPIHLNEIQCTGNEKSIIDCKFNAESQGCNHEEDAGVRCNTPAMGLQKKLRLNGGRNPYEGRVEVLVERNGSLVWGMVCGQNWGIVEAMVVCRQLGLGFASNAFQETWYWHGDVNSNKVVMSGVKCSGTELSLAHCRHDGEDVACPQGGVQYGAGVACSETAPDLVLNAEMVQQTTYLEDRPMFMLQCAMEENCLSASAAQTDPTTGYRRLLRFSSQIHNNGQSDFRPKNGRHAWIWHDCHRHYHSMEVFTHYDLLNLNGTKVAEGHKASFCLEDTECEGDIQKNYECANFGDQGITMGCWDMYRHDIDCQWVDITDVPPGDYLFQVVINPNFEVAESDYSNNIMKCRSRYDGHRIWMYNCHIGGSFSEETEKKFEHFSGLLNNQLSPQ

breast cancer models = settings: daily by oral gavage, 70 mg/kg; cited from earlier work
[4] = test system: cellular lysyl oxidase (LOX) activity, MDA-MB-231 cells; assay: Cell-based lysyl oxidase activity assay (Abcam kit); set-up: species or system human; settings: read-out: cellular LOX activity
From the text: As the available LOX inhibitors are either not very potent or have toxicity, the inventors developed a robust screening pipeline shown in FIG. 28 to identify potent and safe LOX-specific and pan-LOX inhibitors. Briefly, a high-throughput cell-based LOX activity (Abcam) screen (HTS) was done for more than 5,000 drug-like compounds from the EXPRESS-Pick diversified library (4,480 molecules, ChemBridge) and Tocriscreen library of bioactive compounds (1,280 compounds, Tocris), each at a single concentration of 10 μM. […] The toxic molecules were counter screened with cell cytotoxicity assay and filtered out.
FIGS. 34. […] IC50 for cellular lysyl oxidase activity upon treatment of MDA-MB-231 cells with different LOX inhibitors. uM=microM.
For cell-based lysyl oxidase activity, fluorometric Lysly Oxidase Activity Assay Kit (Abcam, USA) was used according to manufacturer's instructions. Briefly, after the treatment, 50 μl of supernatant from each well was incubated with reagent mix and fluorescence measured in multimode-reader at Ex/Em=540/590 nm wavelength.

[5] = human, in vivo; cited from earlier work
[6] = test system: kidney fibrosis, lung fibrosis, myelofibrosis and pancreatic cancer models; settings: in vivo; cited from earlier work
LOXL2 [7] = molecular target: T1, LOXL2; set-up: Simtuzumab only targets extracellular LOXL2; host or cells: pancreatic cancer patients; settings: in combination with gemcitabine; cited from earlier work

Sequence of LOXL3 (P58215 26-753, species assumed): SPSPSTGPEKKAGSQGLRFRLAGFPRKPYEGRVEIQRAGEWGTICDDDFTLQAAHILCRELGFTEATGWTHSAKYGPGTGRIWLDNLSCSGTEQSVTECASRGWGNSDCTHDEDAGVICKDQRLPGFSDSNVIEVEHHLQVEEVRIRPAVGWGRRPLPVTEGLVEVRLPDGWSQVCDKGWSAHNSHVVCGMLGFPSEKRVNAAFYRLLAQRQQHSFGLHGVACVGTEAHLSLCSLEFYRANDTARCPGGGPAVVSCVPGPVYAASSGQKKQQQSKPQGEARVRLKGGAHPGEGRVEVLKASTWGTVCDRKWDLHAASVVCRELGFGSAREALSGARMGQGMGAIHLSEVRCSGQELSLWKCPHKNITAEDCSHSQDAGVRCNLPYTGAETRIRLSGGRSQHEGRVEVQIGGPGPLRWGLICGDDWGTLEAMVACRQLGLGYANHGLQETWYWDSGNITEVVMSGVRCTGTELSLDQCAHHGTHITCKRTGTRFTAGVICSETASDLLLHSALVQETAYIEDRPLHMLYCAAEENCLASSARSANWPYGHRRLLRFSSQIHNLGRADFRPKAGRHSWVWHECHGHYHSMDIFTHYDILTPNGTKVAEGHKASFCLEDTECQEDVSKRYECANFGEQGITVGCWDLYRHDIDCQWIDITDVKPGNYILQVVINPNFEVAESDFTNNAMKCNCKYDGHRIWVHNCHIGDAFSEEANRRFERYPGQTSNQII

Molecule: Cc1nc(N)sc1-c1csc(Nc2ccc(S(N)(=O)=O)cc2)n1 [compound 6405, 4-((2′-amino-4′-methyl-[4,5′-bithiazol]-2-yl)amino)benzenesulfonamide]
- cell viability (cytotoxicity in normal cells) (MCF12A): No significant effect on the viability
- cell viability (cytotoxicity in normal cells) (HUVEC): No significant effect on the viability
- cell viability (cytotoxicity in normal cells) (HFF): No significant effect on the viability
- ECM crosslinking (collagen and fibronectin staining) [1]: decrease in ECM crosslinking

Molecule: Cc1c(-c2cccc(S(=O)(=O)N(C)C)c2)c2ncccc2n1C/C(F)=C/CN.Cl.Cl [PXS-5153A]
- LOXL2-mediated collagen oxidation and cross-linking [2]: reduce LOXL2-mediated collagen oxidation and cross-linking, in a dose-dependent manner
- enzyme inhibition (LOXL3): complete and irreversible enzyme inhibition
- enzyme inhibition (LOXL2 [3]): complete and irreversible enzyme inhibition

Molecule: CS(=O)(=O)c1cc(-c2ccccc2)cc(S(=O)(=O)c2ccc(CN)s2)c1 [CCT365623]
- metastasis (breast cancer models): reduced metastasis
- tumor growth (breast cancer models): decreased tumor growth

- IC50 [4]: 7.5 µM
Molecule: COCCC(=O)Nc1ccc(Nc2nc(-c3sc(N)nc3C)cs2)cc1 [compound 6425, N-[4-[[4-(2-amino-4-methyl-thiazol-5-yl)thiazol-2-yl]amino]phenyl]-3-methoxy-propanamide]

- IC50 [4]: 2 µM
Molecule: CCCCC(=O)Nc1ccc(Nc2nc(-c3sc(N)nc3C)cs2)cc1 [compound 6426, N-[4-[[4-(2-amino-4-methyl-thiazol-5-yl)thiazol-2-yl]amino]phenyl]pentanamide]

Molecule: NC/C=C(\F)CS(=O)(=O)c1cccc2cccnc12 [PXS-5505]
- tolerability [5]: well tolerated
- fibrosis [6]: significant reductions in fibrosis

B1: Simtuzumab: non-competitive LOXL2 targeting humanized monoclonal antibody (antibody, chains of the INN, looked up, V domains shown)
VH: QVQLVQSGAEVKKPGASVKVSCKASGYAFTYYLIEWVRQAPGQGLEWIGVINPGSGGTNYNEKFKGRATITADKSTSTAYMELSSLRSEDTAVYFCARNWMNFDYWGQGTTVTVSS
VL: DIVMTQTPLSLSVTPGQPASISCRSSKSLLHSNGNTYLYWFLQKPGQSPQFLIYRMSNLASGVPDRFSGSGSGTDFTLKISRVEAEDVGVYYCMQHLEYPYTFGGGTKVEIK
- clinical benefit (LOXL2 [7]): minimal
- tolerability (LOXL2 [7]): well-tolerated

Reference: patent US12642791B2, “Inhibitors of lysyl oxidases” (UNIVERSITY OF SOUTH CAROLINA, priority 2021, dated 2026)
